Read-outs that look alike come from different tables or passages of the source.
Details: ester bond

SMILES | ring closure, yield of all isomers (from C/C(=C\c1csc(C)n1)[C@@H](O)C/C=C\CCCC[C@H](O[Si](C)(C)C(C)(C)C)[C@@H](C)C(=O)C(C)(C)[C@H](CC(=O)O)O[Si](C)(C)C(C)(C)C, DCC/DMAP/DMAP.HCl, CHCl3, 0.32 mM, 80.0 °C, 20.0 h) [%] | ring closure, yield of all isomers (from CC[Si](CC)(CC)O[C@@H](CC(=O)O)C(C)(C)C(=O)[C@H](C)[C@@H](OC(=O)OCC(Cl)(Cl)Cl)[C@@H](C)CCC/C(C)=C\C[C@H](O)/C(C)=C/c1csc(C)n1, 2,4,6-trichlorobenzoyl chloride / Et3N / DMAP, toluene, 0.79 mM, 25.0 °C, 3.5 h) [%] | ring closure, yield of all isomers (from CC[Si](CC)(CC)O[C@@H](CC(=O)O)C(C)(C)C(=O)[C@H](C)[C@@H](OC(=O)OCC(Cl)(Cl)Cl)[C@@H](C)CCC/C(C)=C\C[C@H](O)/C(C)=C/c1csc(C)n1, 2,4,6-trichlorobenzoyl chloride/Et3N/DMAP, toluene, 1.32 mM, 25.0 °C, 3.75 h) [%]
C/C(=C\c1csc(C)n1)[C@@H]1C/C=C\CCCC[C@H](O[Si](C)(C)C(C)(C)C)[C@@H](C)C(=O)C(C)(C)[C@@H](O[Si](C)(C)C(C)(C)C)CC(=O)O1 | 75 | – | –
CC[Si](CC)(CC)O[C@H]1CC(=O)O[C@H](/C(C)=C/c2csc(C)n2)C/C=C(/C)CCC[C@H](C)[C@H](OC(=O)OCC(Cl)(Cl)Cl)[C@@H](C)C(=O)C1(C)C | – | 78 | 78
